Read-outs that look alike come from different tables or passages of the source.
Assays:
[1] = test system: P. falciparum NF54; test: Antimalarial assay in vitro (3H-hypoxanthine microculture radioisotope technique); type: cell-based, Plasmodium falciparum; conditions: for IC50: Plasmodium falciparum, read-out: IC50 (µM) NF54; for SI L-6/NF54: selectivity index, quotient of L-6 cytotoxicity IC50 and NF54 IC50
Experimental: (§1) The drug sensitive strain of P. falciparum (NF54) was obtained from Schipol Airport, The Netherlands. […] L-6 cells were derived from rat skeletal myoblasts.
Antimalarial activity in vitro was determined by means of the microculture radioisotope technique which makes use of ^3H-hypoxanthine as an indicator of parasite viability. In this assay the drug sensitive NF54 strain was employed. Parasite cultures supplemented with HEPES (5.94 g/L), NaHCO3 (2.1 g/L), neomycin (100 U/mL), Albumax® (5 g/L) and washed human red cells A^+ at 2.5% haematocrit (0.3% parasitaemia) were incubated in RPMI 1640 medium without hypoxanthine and placed in the 96-well plates. Solutions of 4-(1H)-quinolone derivatives and the positive control chloroquine were dissolved in DMSO at 10 mg/mL and added to the first well followed by serial dilution to afford test concentrations ranging from 100 to 0.002 mg/L. After 48 h incubation at 37 °C, 4% CO2, 3% O2, 93% N2, ^3H-hypoxyanthine was added (0.5 µC/well) and then the plates were incubated further for 24 h under the same condition. The plates were freeze/thawed rapidly, harvested on glass fibre filters and dried. Radioactive hypoxanthine uptake was measured by scintillation counter. IC50 values were calculated from sigmoidal inhibition curves by linear regression using Microsoft Excel. Assays were carried out two times in triplicate.

[2] = test system: T. b. rhodesiense STIB 900 strain; test: Antitrypanosomal assay in vitro (Alamar Blue); type: cell-based, Trypanosoma brucei rhodesiense; conditions: for IC50: Trypanosoma brucei, read-out: IC50 (µM) STIB900; for SI L-6/STIB900: selectivity index, quotient of cytotoxicity and antitrypanosomal IC50 values
Experimental: as §1
In vitro antitrypanosomal assay was carried out against the bloodstream form of T. b. rhodesiense STIB 900 strain using the Alamar Blue assay. The STIB 900 strain was suspended in fresh medium containing 1% MEM powder medium, MEM non-essential amino acids (100x) supplemented with 25 mM HEPES, additional glucose (1 g/L), 0.2 mM 2-mercaptoethanol, 1.0 mM sodium pyruvate and 15% heat inactivated horse serum. 50 µL (4 × 10^3 trypanosomes/mL) of this suspension was seeded in each well of the 96-well microtiter plate which contained test compounds and the positive control melarsoprol which were dissolved in DMSO and serially diluted to concentrations ranging from […]. The plates were incubated at 37 °C under 5% CO2 atmosphere for 70 h. Alamar Blue solution (10 µL) was added and incubation was continued for further 2–4 h. Plates were read with a Spectramax Gemini XS (Molecular Devices Cooperation, Sunnyvale, CA, USA) at EX/EM (536/588 nm). The IC50 values were calculated by linear regression from the sigmoidal dose inhibition curves using SoftmaxPro software. Tests were carried out two times in triplicate.

[3] = test system: rat skeletal muscle cell (L-6); test: Cytotoxicity assay (Alamar Blue); type: cell-based; conditions: Myoblast, read-out: IC50 (µM) L-6
Experimental: as §1
96-well plates were seeded with 100 µL of RPMI 1640 medium supplemented with 1% L-glutamine and 10% fetal bovine serum, and rat skeletal muscle cell (L-6) (4 × 10^3/mL). The 4-(1H)-quinolone derivatives and the positive control podophyllotoxin were dissolved in DMSO and with a serial dilution ranging from […] were added into the wells in triplicate. The plates were incubated for 70 h and assessed microscopically for cell growth. Alamar Blue solution (10 µL) was then added to each well and incubation continued for 2 h before reading with a Spectramax Gemini XS at EX/EM 536/588. The IC50 values were calculated by linear regression from the sigmoidal dose inhibition curves using SoftmaxPro software. Tests were carried out two times in triplicate.

[4] = chloroquine sensitive strain P. falciparum NF54, 72 h total incubation
[5] = bloodstream form T. b. rhodesiense STIB 900, 70 h incubation
[6] = L-6 rat skeletal myoblasts, 70 h incubation

## CCCCCOc1ccc(/C=C/c2cc(=O)c3ccccc3n2CCBr)cc1 [Compound 11]
[1]; [4]
  IC50: 1.56 µM
[1]
  SI L-6/NF54: 27.11
[2]; [5]
  IC50: 3.82 µM
[2]
  SI L-6/STIB900: 11.10
[3]; [6]
  IC50: 42.4 µM

## Cn1c(/C=C/CCCCCCCCCBr)cc(=O)c2ccccc21 [Compound 19]
[1]; [4]
  IC50: 0.69 µM
[1]
  SI L-6/NF54: 52.64
[2]; [5]
  IC50: 1.07 µM
[3]; [6]
  IC50: 36.3 µM

## CCCCCCCCCCC#CCCc1cc(=O)c2ccccc2n1C [Compound 36a]
[1]; [4]
  IC50: 3.11 µM
[1]
  SI L-6/NF54: 4.29
[2]; [5]
  IC50: 33.5 µM
[2]
  SI L-6/STIB900: 0.39
[3]; [6]
  IC50: 13.3 µM

## CCCCCCCCCCCC/C=C/c1cc(=O)c2ccccc2n1CCC [Compound 18f]
[1]; [4]
  IC50: 1.19 µM
[1]
  SI L-6/NF54: 10.99
[2]; [5]
  IC50: 19.1 µM
[2]
  SI L-6/STIB900: 0.68
[3]; [6]
  IC50: 13 µM

## CCCCCCCCCC=CCCCCc1cc(=O)c2ccccc2n1C [Compound 29]
[1]; [4]
  IC50: 0.39 µM
[1]
  SI L-6/NF54: 33.84
[2]; [5]
  IC50: 10.8 µM
[3]; [6]
  IC50: 13.2 µM

## CCCCCCCCCCCC/C=C/c1cc(=O)c2ccccc2n1CCCC [Compound 18g]
[1]; [4]
  IC50: 2.29 µM
[1]
  SI L-6/NF54: 5.79
[2]; [5]
  IC50: 18.7 µM
[2]
  SI L-6/STIB900: 0.70
[3]; [6]
  IC50: 13.3 µM

## CC1=C(/C=C/c2cc(=O)c3ccccc3n2CCBr)C(C)(C)CCC1 [Compound 21, 1-(2-Bromoethyl)-2-[(1′E)-2′-(2′′,6′′,6′′-trimethyl-1′′-cyclohexen-1′′-yl)ethenyl]-4-(1H)-quinol-one]
[1]; [4]
  IC50: 1.99 µM
[1]
  SI L-6/NF54: 16.65
[2]; [5]
  IC50: 8.85 µM
[2]
  SI L-6/STIB900: 3.76
[3]; [6]
  IC50: 33.2 µM

## Cn1c(-c2ccc(CCCCCCCCCCN3CCCCC3)cc2)cc(=O)c2ccccc21 [Compound 5b, 1-Methyl-2-[4′-(10′′-piperidinyldecyl)phenyl]-4-(1H)-quinolone]
[1]; [4]
  IC50: 0.82 µM
[1]
  SI L-6/NF54: 11.73
[2]; [5]
  IC50: 3.41 µM
[2]
  SI L-6/STIB900: 2.83
[3]; [6]
  IC50: 9.63 µM

## Cn1c(-c2ccc(CCCCCCBr)cc2)cc(=O)c2ccccc21 [Compound 5a, 1-Methyl-2-[4′-(6′′-bromohexyl)phenyl]-4(1H)-quinolone]
[1]; [4]
  IC50: 0.09 µM
[2]; [5]
  IC50: 1.64 µM
[2]
  SI L-6/STIB900: 4.04
[3]; [6]
  IC50: 6.63 µM

## CCN(CC)CCCC(C)Nc1ccnc2cc(Cl)ccc12 (stereo not drawn) [Chloroquine, reference compound]
[1]; NF54, 72 h
  IC50: 0.0063 µM

## CCCCCCCCCCC#CCCc1cc(=O)c2ccccc2n1CC [Compound 36b]
[1]; [4]
  IC50: 0.45 µM
[1]
  SI L-6/NF54: 29.82
[2]; [5]
  IC50: 16.6 µM
[2]
  SI L-6/STIB900: 0.82
[3]; [6]
  IC50: 13.6 µM

## CCCOc1ccc(/C=C/c2cc(=O)c3ccccc3n2CCBr)cc1 [Compound 10a, 1-(2-Bromoethyl)-2-[(1′E)-(4′′-propoxyphenyl)ethenyl]-4-(1H)-quinolone]
[1]; [4]
  IC50: 1.58 µM
[1]
  SI L-6/NF54: 16.45
[2]; [5]
  IC50: 1.25 µM
[3]; [6]
  IC50: 25.8 µM

## CCCCCCCCCC/C=C/c1cc(=O)c2ccccc2n1CCBr [Compound 18b]
[1]; [4]
  IC50: 2.3 µM
[1]
  SI L-6/NF54: 16.69
[2]; [5]
  IC50: 8.28 µM
[2]
  SI L-6/STIB900: 4.63
[3]; [6]
  IC50: 38.4 µM

## CCCCCCCCC/C=C/c1cc(=O)c2ccccc2n1C [Compound 18a]
[1]; [4]
  IC50: 12.4 µM
[1]
  SI L-6/NF54: 3.61
[2]; [5]
  IC50: 52.2 µM
[2]
  SI L-6/STIB900: 0.86
[3]; [6]
  IC50: 44.7 µM

## CCCCCC/C=C\CCc1cc(=O)c2ccccc2n1C [Compound 28]
[1]; [4]
  IC50: 15.3 µM
[1]
  SI L-6/NF54: 3.22
[2]; [5]
  IC50: 11 µM
[2]
  SI L-6/STIB900: 4.48
[3]; [6]
  IC50: 49.5 µM

## CN1CCN(CCCCCCCCC/C=C/c2cc(=O)c3ccccc3n2C)CC1 [Compound 20, 1-Methyl-2-[(1′E)-11′(N-methylpiperazinyl)undecenyl]-4-(1H)-quinolone]
[1]; [4]
  IC50: 1.35 µM
[1]
  SI L-6/NF54: 24.14
[2]; [5]
  IC50: 4.94 µM
[2]
  SI L-6/STIB900: 6.59
[3]; [6]
  IC50: 32.5 µM

## C=CCn1c(/C=C/CCCCCCCCCCCC)cc(=O)c2ccccc21 [Compound 18e]
[1]; [4]
  IC50: 0.31 µM
[1]
  SI L-6/NF54: 45.78
[2]; [5]
  IC50: 8.18 µM
[2]
  SI L-6/STIB900: 1.71
[3]; [6]
  IC50: 14 µM

## CCCCCCCCCCCCC#Cc1cc(=O)c2ccccc2n1C [Compound 35]
[1]; [4]
  IC50: 0.84 µM
[1]
  SI L-6/NF54: 18.78
[2]; [5]
  IC50: 10.5 µM
[2]
  SI L-6/STIB900: 1.50
[3]; [6]
  IC50: 15.8 µM

## CCCCCCCCCCCCCCCc1cc(=O)c2ccccc2n1C [Compound 30]
[1]; [4]
  IC50: 6.4 µM
[1]; antimalarial potency, P. falciparum NF54, hydrogenation of the alkenyl chain of 29
  loss in potency compared to 29: 16 fold
[1]
  SI L-6/NF54: 15.91
[2]; [5]
  IC50: 42.4 µM
[2]
  SI L-6/STIB900: 2.39
[3]; [6]
  IC50: 101 µM

## COc1cc([C@@H]2c3cc4c(cc3[C@H](O)[C@H]3COC(=O)[C@H]23)OCO4)cc(OC)c1OC [Podophyllotoxin, reference compound]
[3]; Rattus norvegicus, 70 h
  IC50: 0.017 µM

## C#CCn1c(/C=C/CCCCCCCCCCCC)cc(=O)c2ccccc21 [Compound 18d]
[1]; [4]
  IC50: 4.64 µM
[1]
  SI L-6/NF54: 5.32
[2]; [5]
  IC50: 24.5 µM
[2]
  SI L-6/STIB900: 1.01
[3]; [6]
  IC50: 24.7 µM

## CCCOc1ccc(/C=C/c2cc(=O)c3cc(Cl)ccc3n2C)cc1 [Compound 10b, 6-Chloro-1-methyl-2-[(1′E)-(4′′-propoxyphenyl)ethenyl]-4-(1H)-quinolone]
[1]; [4]
  IC50: 0.47 µM
[1]
  SI L-6/NF54: 342.89
[2]; [5]
  IC50: 21.9 µM
[2]
  SI L-6/STIB900: 7.36
[3]; [6]
  IC50: 161 µM

## Nc1nc(N)nc(Nc2ccc([As]3SCC(CO)S3)cc2)n1 (stereo not drawn) [Melarsoprol, reference compound]
[2]; 70 h
  IC50: 0.0075 µM

## Cn1c(CCCCC=C2CCCCCC2)cc(=O)c2ccccc21 [Compound 31]
[1]; [4]
  IC50: 10.1 µM
[1]
  SI L-6/NF54: 4.52
[2]; [5]
  IC50: 14.4 µM
[2]
  SI L-6/STIB900: 3.19
[3]; [6]
  IC50: 45.8 µM

Source: PMC6271202, “1,2-Substituted 4-(1H)-Quinolones: Synthesis, Antimalarial and Antitrypanosomal Activities in Vitro” (Molecules, 2014)
